Laboratory results from patent publication US20090298752A1, “APLIDINE TREATMENT OF CANCERS” (PHARMA MAR, S.A., priority 1999, published 2009).

Columns and labels:
[1] = Phase I, 24 h infusion every 2 weeks: toxicity and pharmacokinetics; format: in vivo, human
Experimental: Aplidine is given as a 24 hour infusion every 2 weeks. The starting dose was 200 μg/m^2/d and dose escalation proceed including so far 400, 800, 1600, and 3200 μg/m^2/d. A total of 18 patients (M/F: 7/11, median age 52, OMS 0/1:10/8) have been entered. […] Among evaluable patients, toxicity consisted of mild grade I-II nausea/vomiting, grade I-II asthenia, and cramping occurring during or immediately after the infusion. No neuromuscular toxicity were reported at the evaluated doses. One patient with an advanced lung cancer and documented tumour progression at the dose of 1600 μg/m^2 developed a haemolytic anaemia and thrombocytopenia that was considered unlikely related to the study drug. […] An open 2-compartment model fits appropriately most plasma concentration profiles. […] The accrual is ongoing to determine the dose limiting toxicity and the dose to be recommended in phase II studies.
Aplidine was given to patients with solid tumour/NHL as a 24 hr infusion/q2w to 35 patients (median: age=51/ECOG=1) with solid tumour (32 pts) or NHL (3 pts). 23/35 patients were previously exposed to ≧3 previous lines of chemotherapy. Nine dose levels (200-7000 μg/m^2/w/q2w) and 65 cycles (120 infusions) were given. […] Toxicity consisted of G2-3 asthenia and emesis in 9-2 patients and 12-1 pts, respectively. G3 nausea/vomiting (≧5000 μg/m^2) was efficiently treated then prevented with 4HT3-regimens. […] At the dose of 5000 μg/m^2/w/q2w, 2 patients experienced transient muscle cramps with reversible G3 CPK-MM elevations. Among 9 patients treated at 6000 μg/m^2/w, 3 patients experienced an increase of CPK-MM and aldolase after the 3rd injection of aplidine. CPK elevations were G1-2 and not symptomatic in 2 patients but a G3 CPK elevation with G3 muscular pain and loss of muscle strength (DLT) was reported in 1 pt. This was reversible with no sequel. […] Ultrastructural electron microscopy indicated no morphological mitochondria alteration but a lost of the thick myosin filaments. At 7000 μg/m^2/q2w, 4 patients have been entered. […] Mechanistic hypothesis and preventive strategies against muscle toxicity are under evaluation.

[2] = tested on: FMS; experiment: cDNA expression array in MOLT-4 cells; format: cell-based, human; settings: for quantitative change in FMS expression: MOLT-4, 1 h treatment
Experimental: (§1) The early changes in gene expression induced by aplidine in MOLT-4 cells were evaluated by using cDNA expression arrays (Atlas Human Cancer, Clontech). MOLT-4 cells were treated for 1 hour with concentrations of aplidine which inhibit the growth by 50% and total RNA was isolated at 0, 1, 6 and 24 hours after drug wash out. Filters were hybridised with equal amount of 32P labelled cDNA. Analysis of the results was carried out using ATLAS IMAGE 1.0 software. Changes in gene expression greater than 2 fold were taken as significant changes in RNA expression and subsequently confirmed by PCR.
as §1, with “In the present study we have evaluated the early” for “The early”, “cells” for “cells were evaluated”, “of aplidien” for “of aplidine”, “isolated t” for “isolated at”, “equal amounts” for “equal amount”, “PCR. […] Whether the down-regulation of flt-1 is involved in the cytotoxic and antitumour effect of aplidine is under investigation at the moment.” for “PCR.”
(§2) The human leukaemia cell line MOLT-4 was used for these experiments MOLT-4 cells were treated for 1 hour with 20 nM of aplidine. Total RNA was extracted at the end of treatment and 6 and 24 hours after recovery in drug-free medium.
(§3) 5 μg of total RNA were retrotanscribed to cDNA in the presence of ^32P dATP. Equal amounts of radioactive probes were hybridised to Atlas Human Cancer Microarrays (Clontech). After washing, filter were exposed and the results analysed using the Atlas Image software. Only a gene expression difference greater than 2 fold between treated and untreated cells were taken into account. RT-PCR and northern analysis have been performed to confirm the changes in gene expression found with the microarrays.

[3] = tested on: DNA-PK; experiment: cDNA expression array in MOLT-4 cells; format: cell-based, human; settings: MOLT-4, 1 h treatment
Experimental: as §1
as §1, with “In the present study we have evaluated the early” for “The early”, “cells” for “cells were evaluated”, “of aplidien” for “of aplidine”, “isolated t” for “isolated at”, “equal amounts” for “equal amount”, “PCR. […] Whether the down-regulation of flt-1 is involved in the cytotoxic and antitumour effect of aplidine is under investigation at the moment.” for “PCR.”
as §2, §3

[4] = tested on: ETR; experiment: cDNA expression array in MOLT-4 cells; format: cell-based, human
Experimental: as §1
as §1, with “In the present study we have evaluated the early” for “The early”, “cells” for “cells were evaluated”, “of aplidien” for “of aplidine”, “isolated t” for “isolated at”, “equal amounts” for “equal amount”, “PCR. […] Whether the down-regulation of flt-1 is involved in the cytotoxic and antitumour effect of aplidine is under investigation at the moment.” for “PCR.”
as §2, §3

[5] = 6000 μg/m^2/w, among 9 patients
[6] = 6000 mcg/m^2/2 wks, 12 patients

## aplidine
[1]; 5000 μg/m^2/w/q2w
  transient muscle cramps with reversible G3 CPK-MM elevations: 2 patients
[1]; [5]
  G3 CPK elevation with G3 muscular pain and loss of muscle strength (DLT): 1 pt
  increase of CPK-MM and aldolase after the 3rd injection: 3 patients
[1]; 2-compartment model, preliminary
  initial phase median half-life: 0.64 h
[1]; 2-compartment model, preliminary, 24 h infusion
  terminal phase median half-life: 25.8 h
[1]; 200 mcg/m^2/2 wks, 3 patients
  Nausea/vomiting G2 (worst toxicity per patient): 2
  Transaminitis G2 (worst toxicity per patient): 1
[1]; 400 mcg/m^2/2 wks, 3 patients
  Asthenia G2 (worst toxicity per patient): 2
  Hypertension G2 (worst toxicity per patient): 1
  Nausea/vomiting G2 (worst toxicity per patient): 1
[1]; 800 mcg/m^2/2 wks, 3 patients
  Flushing G1 (worst toxicity per patient): 1
  Muscle cramps G1 + G2 (worst toxicity per patient): 2
[1]; 1600 mcg/m^2/2 wks, 6 patients
  Asthenia G2 (worst toxicity per patient): 2
  Asthenia G3 (worst toxicity per patient): 1
  Muscle cramps G1 + G2 (worst toxicity per patient): 1
  Nausea/vomiting G2 (worst toxicity per patient): 4
  Transaminitis G3 (worst toxicity per patient): (1)
[1]; 3200 mcg/m^2/2 wks, 3 patients
  Asthenia G2 (worst toxicity per patient): 1
  Flushing G1 (worst toxicity per patient): 1
  Muscle cramps G1 + G2 (worst toxicity per patient): 2
  Muscle pain G2 (worst toxicity per patient): (1)
  Nausea/vomiting G3 (worst toxicity per patient): (1)
[1]; 4000 mcg/m^2/2 wks, 3 patients
  Asthenia G2 (worst toxicity per patient): 1
  Flushing G1 (worst toxicity per patient): 1
  Muscle cramps G1 + G2 (worst toxicity per patient): 2
  Muscle pain G1 (worst toxicity per patient): 2
  Nausea/vomiting G2 (worst toxicity per patient): 2
  Pain central catheter G2 (worst toxicity per patient): 2
[1]; 5000 mcg/m^2/2 wks, 3 patients
  Asthenia G3 (worst toxicity per patient): (1)
  CPK elevation G3 (worst toxicity per patient): (1)[1]
  CPK elevation G4 (worst toxicity per patient): (1)[1]
  Muscle cramps G1 + G2 (worst toxicity per patient): 2
  Muscle pain G1 (worst toxicity per patient): 1
  Muscle weakness G1 (worst toxicity per patient): 1
  Nausea/vomiting G2 (worst toxicity per patient): 1
  Transaminitis G2 (worst toxicity per patient): 1
[1]; [6]
  Asthenia G2 (worst toxicity per patient): 6
  CPK elevation G2 (worst toxicity per patient): 1(1)
  CPK elevation G3 (worst toxicity per patient): 1(1)
  Muscle cramps G1 + G2 (worst toxicity per patient): 1
  Muscle pain G1 (worst toxicity per patient): 1
  Muscle pain G2 (worst toxicity per patient): 2
  Muscle weakness G1 (worst toxicity per patient): 1(1)
  Muscle weakness G2 (worst toxicity per patient): 1(1)
  Nausea/vomiting G2 (worst toxicity per patient): 2
[1]; 7000 mcg/m^2/2 wks, 7 patients
  Asthenia G2 (worst toxicity per patient): 2
  CPK elevation G2 (worst toxicity per patient): 1
  Flushing G1 (worst toxicity per patient): 1
  Muscle pain G1 (worst toxicity per patient): 1
  Nausea/vomiting G2 (worst toxicity per patient): 1
  Neutrophenia G4 (worst toxicity per patient): 1
  Transaminitis G2 (worst toxicity per patient): 1
[1]; Example 6
  terminal half-life: 10 to 24 h
[1]; Example 6: 18 patients, 200-3200 μg/m^2/d
  dose limiting toxicity: no dose limiting toxicity
[1]; Example 14
  clearance: 332 ml/mm.m^2
  terminal half life: 15 to 35 h
[1]; Example 14, 35 patients
  G2 asthenia, patients: 9 patients
  G2 emesis, patients: 12 pts
  G3 asthenia, patients: 2 patients
  G3 emesis, patients: 1 pts
  cardiac toxicity: No cardiac toxicity
  haematologic toxicity: No haematiologic toxicity
[1]; Example 18, interpatient
  coefficient of variation of CL: 62%
[1]; Example 18, median, quartiles 15.7-35.0
  t ½: 23.8 h
[1]; Example 18, median, quartiles 192-415
  plasma CL: 252 mL/min/m^2
[1]; Example 18, median, quartiles 274-638
  Vss: 413 L/m^2
[1]; doses ≧3000 μg/m^2/q2w
  Plasma concentrations 24 h after the end of infusion, comparable to efficient in vitro concentrations: < 1 ng/mL
[2]; 6 Hours
  quantitative change in FMS expression: +2.7 fold
[2]; 24 Hours
  quantitative change in FMS expression: +2.1 fold
[2]; MOLT-4, 6 hours after recovery in drug-free medium
  levels of Fms, in words: increase
[3]; 6 Hours
  quantitative change in DNA-PK expression: +3.0 fold
[3]; 24 Hours
  quantitative change in DNA-PK expression: +3.8 fold
[4]; MOLT-4, 20 nM 1 h, after 6 and 24 hours
  ETR levels, in words: returned to normal level
[4]; MOLT-4, 20 nM 1 h, at the end of treatment
  expression of early response gene ETR, in words: increased
[4]; MOLT-4, 1 h treatment, 1 Hour
  quantitative change in ETR expression: +2.7 fold
